These are literature values, as cited in patent publication US20100317666A1, “Composition Comprising An NK-1 Receptor Antagonist And An SSRI For The Treatment Of Tinnitus And Hearing Loss” (Glaxo Group Limited, priority 2006, published 2010).

The conditions of data set [1]: 8-12 weeks treatment; high dose (up to 50 mg/day).
The conditions of data set [2]: iv infusion; transient effect.

For the compound `Fc1ccc([C@@H]2CCNC[C@H]2COc2ccc3c(c2)OCO3)cc1` (relative stereo) [paroxetine, trans-(−)-3-[(1,3-benzodioxol-5-yloxy)methyl]-4-(4-fluorophenyl)piperidine], in data set [1], the effects on tinnitus result was “Modest effects”.

For the compound `CCN(CC)CC(=O)Nc1c(C)cccc1C` [lidocaine], the “subject responding with tinnitus partial or complete inhibition” value in data set [2] is given as “up to 60%”.
